Reference: patent publication US8389513B2, “2-amino-5,5-difluoro-5,6-dihydro-4H-[1,3]oxazin-4-yl)-phenyl]-amides” (Hoffmann-La Roche Inc., priority 2009, dated 2013)

How the values were obtained:
[1] = molecular target: T1, CYP3A4 (Homo sapiens, UniProt P08684); test: CYP inhibition assay, CYP3A4; type: in vitro ADME; conditions: human liver microsomes, midazolam; read-out: CYP IC50 3A4
T1 construct: 0.2 mg/ml pooled human liver microsomes; from tissue; host or cells: pooled human liver microsomes
T1 sequence (P08684 whole entry): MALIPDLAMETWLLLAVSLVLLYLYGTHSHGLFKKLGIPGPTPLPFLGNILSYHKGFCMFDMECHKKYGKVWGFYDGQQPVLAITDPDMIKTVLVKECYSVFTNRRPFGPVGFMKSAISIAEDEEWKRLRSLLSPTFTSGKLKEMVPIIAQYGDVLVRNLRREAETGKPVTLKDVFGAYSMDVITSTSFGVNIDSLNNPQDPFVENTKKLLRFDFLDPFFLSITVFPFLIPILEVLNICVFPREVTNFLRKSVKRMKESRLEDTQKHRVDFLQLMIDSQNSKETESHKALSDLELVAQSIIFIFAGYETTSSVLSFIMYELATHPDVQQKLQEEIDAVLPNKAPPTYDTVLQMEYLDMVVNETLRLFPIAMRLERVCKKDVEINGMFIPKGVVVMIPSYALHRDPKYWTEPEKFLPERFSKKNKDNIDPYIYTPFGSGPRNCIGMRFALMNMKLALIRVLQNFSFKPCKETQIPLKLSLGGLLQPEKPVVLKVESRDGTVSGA
Description: Inhibition of cytochromes P450 (CYPs) 2C9, 2D6 and 3A4 was assessed using human liver microsomes and CYP-selective substrate metabolism reactions. 50 μl incubations were made up containing (finally) 0.2 mg/ml pooled human liver microsomes, 5 μM substrate (diclofenac for CYP2C9 [4′ hydroxylase], dextromethorphan for CYP2D6 [O-demethylase] or midazolam for CYP3A4 [1′ hydroxylase]), 0.25 μL DMSO containing test inhibitor and NADPH regenerating system. […] Incubations were prewarmed to 37° C. for 10 minutes before initiation by addition of NADPH regenerating system. Incubations were quenched after 5 minutes (20 minutes for dextromethorphan) by addition of 50 μl cold acetonitrile containing 20 ng/ml 4-OH-diclofenac-13C6, 20 ng/mL dextrorphan-D3 and 20 ng/mL 1-OH-midazolam-D4. Quenched incubates were stored at −20° C. for at least 1 hour before centrifugation (20,000×g, 20 minutes). Supernatants were removed and diluted 1:1 with water prior to analysis using a RapidFire sample injector system and API4000 mass spectrometer. Peak areas for substrate, metabolite and stable-labelled metabolite standard were determined using MS/MS. The peak area ratios between the metabolite generated by the enzymatic reaction and the internal standard were used in subsequent calculations. The percentage of (DMSO) control activity was calculated for each incubate and IC50 values estimated by non-linear regression. Sulfaphenazole, quinidine or ketoconazole were tested in each CYP2C9, CYP2D6 or CYP3A4 inhibition experiment, respectively, to ensure assay sensitivity and reproducibility.

[2] = molecular target: T2, BACE2 (Rattus norvegicus, UniProt Q6IE75); test: Assay for BACE inhibition by measuring cellular TMEM27 cleavage; type: cell-based; conditions: INS-TMEM27 cells (INS1e-derived); shed TMEM27 by ELISA; read-out: BACE2 cell act. IC50
T2 construct: endogenous cellular BACE2 in the Ins1e rat cell line; endogenous in cells; host or cells: INS-TMEM27 (INS1e-derived rat cell line with TetOn-inducible full-length hTMEM27)
T2 sequence (Q6IE75 63-514): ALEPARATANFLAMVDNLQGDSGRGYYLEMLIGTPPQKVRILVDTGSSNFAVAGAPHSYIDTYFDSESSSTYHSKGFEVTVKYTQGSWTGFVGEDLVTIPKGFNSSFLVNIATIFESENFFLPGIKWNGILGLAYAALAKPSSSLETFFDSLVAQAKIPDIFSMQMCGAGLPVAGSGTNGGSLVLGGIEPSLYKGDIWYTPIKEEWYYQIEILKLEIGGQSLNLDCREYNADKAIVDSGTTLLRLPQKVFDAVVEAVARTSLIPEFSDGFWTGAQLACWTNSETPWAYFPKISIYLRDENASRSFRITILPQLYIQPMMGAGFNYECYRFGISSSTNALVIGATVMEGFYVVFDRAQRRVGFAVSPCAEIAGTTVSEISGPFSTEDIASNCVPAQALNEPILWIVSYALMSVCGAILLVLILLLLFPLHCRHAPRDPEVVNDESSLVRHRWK
Summary of the method: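 Ins1e-derived INS-TMEM27 rat cells with doxycycline-inducible full-length human TMEM27; inhibitor added 2 h before doxycycline (500 ng/ml final), then 46 h at 37 °C. Shed TMEM27 in supernatant quantified by sandwich ELISA with anti-human-TMEM27 antibodies; EC50 from curve fit across inhibitor concentrations.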

[3] = in vivo effect; conditions: po; % of control @ 30 mg/kg p.o.

Row | Structure (SMILES) | IC50 [1] [nM] | IC50 [2] [nM] | response vs control in vivo at 30 mg/kg [3] [%]
1 | C[C@]1(c2cc(NC(=O)c3ccc(Cl)cn3)ccc2F)N=C(N)OCC1(F)F [Example 1, 5-Chloro-pyridine-2-carboxylic acid [3-((R)-2-amino-5,5-difluoro-4-methyl-5,6-dihydro-4H-[1,3]oxazin-4-yl)-4-fluoro-phenyl]-amide] | > 10000 | 35 | < 50
2 | C[C@]1(c2cc(NC(=O)c3ncc(C(F)(F)F)cc3Cl)ccc2F)N=C(N)OCC1(F)F [Example 5, 3-Chloro-5-trifluoromethyl-pyridine-2-carboxylic acid [3-((R)-2-amino-5,5-difluoro-4-methyl-5,6-dihydro-4H-[1,3]oxazin-4-yl)-4-fluoro-phenyl]-amide] | > 10000 | 15 | < 50
3 | C[C@]1(c2cc(NC(=O)c3ncc(Cl)cc3Cl)ccc2F)N=C(N)OCC1(F)F [Example 8, 3,5-Dichloro-pyridine-2-carboxylic acid [3-((R)-2-amino-5,5-difluoro-4-methyl-5,6-dihydro-4H-[1,3]oxazin-4-yl)-4-fluoro-phenyl]-amide] | > 10000 | 71 | < 50
4 | CC1(C)OC(N)=N[C@](C)(c2cc(NC(=O)c3ncc(C(F)(F)F)cc3Cl)ccc2F)C1(F)F [Example 20, 3-Chloro-5-trifluoromethyl-pyridine-2-carboxylic acid [3-((R)-2-amino-5,5-difluoro-4,6,6-trimethyl-5,6-dihydro-4H-[1,3]oxazin-4-yl)-4-fluoro-phenyl]-amide] | > 10000 | 1270 | < 50
5 | CC1(C)OC(N)=N[C@](C)(c2cc(NC(=O)c3ccc(C#N)cn3)ccc2F)C1(F)F [Example 21, 5-Cyano-pyridine-2-carboxylic acid [3-((R)-2-amino-5,5-difluoro-4,6,6-trimethyl-5,6-dihydro-4H-[1,3]oxazin-4-yl)-4-fluoro-phenyl]-amide] | > 10000 | 210 | < 50
6 | CC1(C)OC(N)=N[C@](C)(c2cc(NC(=O)c3ncc(C#N)cc3Cl)ccc2F)C1(F)F [Example 22, 3-Chloro-5-cyano-pyridine-2-carboxylic acid [3-((R)-2-amino-5,5-difluoro-4,6,6-trimethyl-5,6-dihydro-4H-[1,3]oxazin-4-yl)-4-fluoro-phenyl]-amide] | 1000 to 10000 | 175 | < 50
7 | C[C@]1(c2cc(NC(=O)c3ncc(C#N)cc3Cl)ccc2F)N=C(N)OCC1(F)F [Example 39, 3-Chloro-5-cyano-pyridine-2-carboxylic acid [3-((R)-2-amino-5,5-difluoro-4-methyl-5,6-dihydro-4H-[1,3]oxazin-4-yl)-4-fluoro-phenyl]-amide] | 1000 to 10000 | 224 | < 50
